Experiments:
[1] = tested on: growing female Sprague Dawley rats; assay: Attainment of peak bone mass: BMD by DEXA in growing rats; format: in vivo; conditions: 21 days old female rats, 5 mg/kg body weight oral daily, 30 days; vs vehicle
Method: 21 days old female Sprague Dawley rats were divided into three groups, each group consisted of 10 rats; control (vehicle treated), 750 mg/kg C002 crude extract, and 50 mg/kg 914/F004. Vehicle or treatments were given daily by oral route in gum acacia for 30 days. After completion of 30 days the rats were euthanized and there bones (femur, tibia, L1-L4 vertebra) were collected.
Bone Mineral Density of Femur (Global, head, neck), tibia (global, head, tibio-fibular separation point) and lumber vertebra (LV1, LV2, LV3, LV4) was determined by DEXA.
Female Sprague Dawley rats at weaning (˜21 d old) were divided into two groups consisting of 10 rats per group. Control rats were treated with gum acacia (vehicle) and the other group was treated with K058 at 5 mg/kg body weight. All the control and treated rats were given K058 or vehicle daily by oral route in gum acacia for 30 days. After completion of 30 days the rats were euthanized and their bones (femur, tibia, L1-L4 vertebra) were collected.
Bone mineral density of femur (global, head, neck), tibia (global, head, tibio-fibular separation point) and lumber vertebra (LV1, LV2, LV3, LV4) was determined by DEXA.

calvarial osteoblasts [2] = assay: BrdU cell proliferation assay; format: cell-based, neonatal Sprague-Dawley rats
Method: (§1) Neonatal rat calvarial cell cultures are prepared as described previously (Chattopadhyay et al., Endocrinology 145:3451-62, 2004) using slight modification. Briefly, for calvarial osteoblast cultures, frontal and parietal bones from neonatal Sprague-Dawley rats (1-3 day old) were digested in 0.1% collagenase/0.1% dispase in α-MEM to obtain 5 sequential digests. The second through fifth digests are combined and grown to confluence at 37° C. and 5% CO2 in air in α-MEM, supplemented with 10% fetal bovine serum (FBS), 2 mM glutamine, 100 U/ml penicillin-streptomycin, non-essential amino acid solution and sodium pyruvate.
BrdU assay is used to measure cell proliferation based on the incorporation of BrdU during DNA synthesis in proliferating cells (Chattopadhyay et al., Endocrinology 145:3451-62, 2004). […] Cells were allowed to attach for 24 h and after that cells were starved in 0.5% FCS containing α-MEM medium followed by treatment of K058 at various concentrations for 24 hrs following which cell proliferation was determined by BrdU ELISA method as described by the manufacturer (Roche Biochemicals, Rotkreuz, Switzerland). […] BrdU incubation was carried out for 4 h, cells were fixed and denatured and subsequently treated with anti-BrdU antibody and the immune complexes were detected by the substrate reaction. Absorbance was measured at 370 nm.

calvarial osteoblasts [3] = assay: Semi-quantitative RT-PCR of osteogenic genes; format: cell-based, neonatal Sprague-Dawley rats; conditions: 10^−7 M
Method: as §1
RT-PCR was performed for assessing mRNA levels of Col1 (collagen type I), Cbfa-1 (Core binding factor-1), ALP (Alkaline phosphatase), OPN (osteopontin), BMP 2 (Bone morphogenic protein 2), OPG (Osteoprotegrin), and OCN (Osteocalcin). The house-keeping gene GAPDH (Glyceraldehyde-3-phosphate dehydrogenase) was used as the internal control in this study. RNAs were extracted at 0-, 4-, 8-, 12-, 24-, and 48 h. Total RNA was extracted using TRIzol reagent (Invitrogen). A single step RT PCR kit (Qaigen) was used to perform RT-PCR according to the manufacturer's instructions. Following gene specific primer pairs were used (Table 2).

mRNA levels of Alkaline phosphatase (ALP) (calvarial osteoblasts [3]; 0 to 48 h)	mRNA levels of core binding factor-1 (Cbfa-1) (calvarial osteoblasts [3]; 0 to 48 h)	SMILES	BMD shaft region of femur [1]	osteoblast proliferation (summary of in vitro effects) (calvarial osteoblasts [2])	mRNA levels of OPG (Osteoprotegrin) (calvarial osteoblasts [3])	mRNA levels of bone morphogenic protein-2 (BMP-2) (calvarial osteoblasts [3]; 0 to 48 h)	mRNA levels of collagen I (COL-1) (calvarial osteoblasts [3]; 0 to 48 h)	mRNA levels of osteocalcin (OCN) (calvarial osteoblasts [3]; 0 to 48 h)
increased	increased	O=C1c2c(cc(O)c([C@@H]3OC(CO)[C@@H](O)[C@H](O)C3O)c2O)O[C@@H](c2ccc(O)c(O)c2)[C@@H]1O (stereo partly drawn) [K058, (2S,3S)-(+)-3′,4′,5,7-tetrahydroxydihydroflavonol-6-C-β-D-glucopyranoside]	significantly more	promoted	increased	increased	increased	increased
–	–	O=c1c(O)c(-c2ccc(O)c(O)c2)oc2cc(O)c(C3O[C@H](CO)[C@@H](O)[C@H](O)[C@H]3O)c(O)c12 (stereo partly drawn) [K012, 6-Glucopyranosyl-3,3′,4′,5,7-pentahydroxyflavone]	–	promoted	–	–	–	–

— patent US8669232B2, “Flavonol compounds, a bioactive extract/fraction from Ulmus wallichiana and its compounds for prevention for treatment of osteo-health related disorders” (Council of Scientific & Industrial Research, priority 2008, dated 2014)
